Structures are written as SMILES.

For test [1], the system named is mec-2 null worms expressing the mec-2(C140/174A) gene. Description: C. elegans gentle touch sensitivity on plates with defined sterols. Type of test: in vivo. Conditions: sterol substituted for cholesterol in the growth medium, FIG. 8C. Here is the method:
C. elegans experiments. C. elegans strains were cultured at 20° C., assayed for touch sensitivity, and prepared for immunofluorescence as described previously [Zhang et al. (2004) Curr. Biol. 14:1888-96; Goodman et al. (2002) Nature 415:1039-42]. Briefly, C. elegans strains were cultured at 20° C. as described in the art. Strains were grown for at least three consecutive generations without starvation before carrying out the experiments described herein. Gentle touch and harsh touch sensitivity were assayed in blind tests by stimulating with an eyebrow hair or prodding with a platinum wire, respectively, as described in the art. To quantify the response, the number of responses in about 30 animals to 10 touches delivered alternately near the head and tail was recorded. Whole-mount immunofluorescence microscopy was carried out using methods known in the art.
Media for growth on limiting or no cholesterol or on other sterols were prepared from chloroform-extracted reagents as described by Matyash et al. [(2004) PLoS Biol. 2: e280].
First, a version of MEC-2 with reduced cholesterol binding was generating by mutating the predicted palmitoylation sites of the protein. Briefly, HEK293T cells were transfected with wild type MEC-2 or MEC-2(C140/174A) and labeled with [^3H]palmitic acid or [^3H]photoaffinity cholesterol. Equal expression of proteins in the lysates was confirmed on Western blots. […] Because touch sensitivity of wild-type animals was not affected by this limited cholesterol depletion, the effects observed with the palmitoylation mutant cannot be attributed to indirect effects on neuronal growth or development. Test compounds that target palmitoylation sites in PHB domain proteins can be used to modulate activity of such proteins, for example, by reducing their activity.

The target in another test is T1, TRPC6 (Homo sapiens, UniProt Q9Y210).
T1 construct: expressed in transfected cells; host or cells: Xenopus laevis oocytes (cRNA injection)
T1 sequence (Q9Y210 1-931): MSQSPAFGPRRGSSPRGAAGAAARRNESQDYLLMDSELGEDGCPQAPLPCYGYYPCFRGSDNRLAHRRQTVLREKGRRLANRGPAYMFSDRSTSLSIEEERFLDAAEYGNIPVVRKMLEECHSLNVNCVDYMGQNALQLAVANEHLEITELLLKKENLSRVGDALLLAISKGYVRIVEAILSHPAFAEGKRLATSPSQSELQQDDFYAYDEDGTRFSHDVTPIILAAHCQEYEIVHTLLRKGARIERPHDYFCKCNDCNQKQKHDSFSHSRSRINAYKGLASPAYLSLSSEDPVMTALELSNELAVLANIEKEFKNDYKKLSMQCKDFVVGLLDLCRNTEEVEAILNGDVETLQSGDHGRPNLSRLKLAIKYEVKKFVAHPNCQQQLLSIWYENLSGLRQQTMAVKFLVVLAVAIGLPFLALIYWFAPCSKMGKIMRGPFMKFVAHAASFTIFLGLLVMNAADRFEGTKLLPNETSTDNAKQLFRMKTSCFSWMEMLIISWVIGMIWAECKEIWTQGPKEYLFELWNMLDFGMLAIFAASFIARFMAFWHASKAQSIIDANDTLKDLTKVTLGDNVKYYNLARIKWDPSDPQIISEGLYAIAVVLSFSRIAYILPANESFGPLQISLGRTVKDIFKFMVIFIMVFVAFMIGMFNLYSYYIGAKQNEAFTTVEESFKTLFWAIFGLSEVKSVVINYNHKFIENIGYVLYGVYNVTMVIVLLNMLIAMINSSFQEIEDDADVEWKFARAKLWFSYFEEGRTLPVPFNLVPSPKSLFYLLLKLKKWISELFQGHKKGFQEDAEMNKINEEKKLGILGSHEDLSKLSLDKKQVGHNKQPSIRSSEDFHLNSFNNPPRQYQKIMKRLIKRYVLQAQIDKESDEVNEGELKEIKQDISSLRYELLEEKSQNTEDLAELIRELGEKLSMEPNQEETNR
Description: Oocyte electrophysiology, two-electrode voltage clamp. It counts as cell-based. Conditions: TRPC6-expressing Xenopus laevis oocytes, Ca2+ free bath solution, 10 μM. Here is the method: Oocyte Electrophysiology. Xenopus laevis oocytes were isolated from adult frogs (Kähler, Hamburg, Germany), dispersed and defolliculated by a 45 minute treatment with collagenase (type A, Boehringer, Germany), and were rinsed and kept at 18° C. in ND96-buffer (in mmol/l): NaCl 96, KCI 2, CaCl2 1.8, MgCl2 1, HEPES 5, Na-pyruvate 2.5, pH 7.55), supplemented with theophylline (0.5 mmol/l) and gentamycin (5 mg/l).
To prepare cRNAs for TRPC6, Podocin and Podocin-DPHB (Podocin-ΔPHB), cDNAs encoding TRPC6, Podocin and Podocin-DPHB were transcribed in vitro using the T7 promoter and polymerase (Promega, Madison, Wis.). After isolation from adult Xenopus laevis female frogs (Kähler, Hamburg, Germany), oocytes were dispersed and defolliculated by a 45 minute treatment with collagenase (type A, Boebringer, Germany). Subsequently, the oocytes were rinsed and kept at 18° C. in ND96-buffer (in mmol/l): NaCl 96, KCI 2, CaCI2 1.8, MgCI2 1, HEPES 5, Na-pyruvate 2.5, pH. […] Membrane currents were measured by voltage clamping of the oocytes (Warner oocyte clamp amplifier OC725C) in intervals from −60 to +40 mV, each 1 s. Conductances were calculated according to Ohm's law. Na^+ conductances were determined by replacing Na^+ by n-methyl-D-glucamine (GNMDG) in a Ca^2+ free bath solution, before and after stimulation with 10 μM dioctanoyl glycerol (Sigma, Germany). […]
A general note: Two-electrode voltage clamp is typically applied to oocytes expressing channels or transporters.

Regarding `CC(C)CCC[C@@H](C)[C@H]1CC[C@H]2C3=CC[C@H]4C[C@@H](O)CC[C@]4(C)[C@H]3CC[C@]12C` [lathosterol], the “rescue of reduced touch sensitivity” value in test [1] is “could be rescued”.

As to `CCCCCCCC/C=C\CCCCCCCC(=O)OC[C@H](CO)OC(C)=O` [OAG, 1-oleoyl-2-acetyl-sn-glycerol], on TRPC6, the “inward Na+ current” value is “further augmented”.

Take `CC(C)CCC[C@@H](C)[C@H]1CC[C@H]2C3=CC=C4C[C@@H](O)CC[C@]4(C)[C@H]3CC[C@]12C` [7-dehydro cholesterol]: the “rescue of reduced touch sensitivity” value in test [1] is listed as “could be rescued”.

In the case of `CC(C)[C@@H](C)/C=C/[C@@H](C)[C@H]1CC[C@H]2C3=CC=C4C[C@@H](O)CC[C@]4(C)[C@H]3CC[C@]12C` [ergosterol], the “rescue of reduced touch sensitivity” value in test [1] is “could be rescued”.

(Values after patent US20090175845A1, “METHODS FOR IDENTIFYING COMPOUNDS THAT MODULATE PHB DOMAIN PROTEIN ACTIVITY AND COMPOSITIONS THEREOF” (THE TRUSTEES OF COLUMBIA UNIVERSITY IN THE CITY OF NEW YORK, priority 2005, published 2009).)
